The values below are quoted from earlier work in publication PMC6738096 (British Journal of Cancer, 2019).

One data set has as its system ALK-positive NSCLC. Also noted: method as in not given. Conditions: ALK pre-treated setting, post crizotinib; ref not given; cited from earlier work.
For data set [1] the following is noted: cited from earlier work.

In the case of `Cc1cc(Nc2ncc(Cl)c(Nc3ccccc3S(=O)(=O)C(C)C)n2)c(OC(C)C)cc1C1CCNCC1` [ceritinib], the Objective response rate with ALK-positive NSCLC is listed as 55%. In data set [1] (among 919 patients), the “Patients with QTc > 500 ms” value is given as 1.3% and the “Patients with ΔQTc of > 60 ms” value is listed as 6%.

With `COc1cc(N2CCC(N3CCN(C)CC3)CC2)ccc1Nc1ncc(Cl)c(Nc2ccccc2P(C)(C)=O)n1` [brigatinib], in the data set with ALK-positive NSCLC, the Objective response rate is reported as 45–54%. The “QTc prolongation in clinical trials” value in data set [1] is given as “QTc was not prolonged to any clinically relevant extent”.

For the compound `C[C@H]1Oc2cc(cnc2N)-c2c(nn(C)c2C#N)CN(C)C(=O)c2ccc(F)cc21` [lorlatinib], the Objective response rate with ALK-positive NSCLC is reported as 48%.
